Assay results reported in patent publication US12433899B2, “Therapeutics and method for treating osteoarthritis” (Calosyn Pharma Inc., priority 2021, dated 2025).

System: medial meniscal tear-induced cartilage degeneration
Assay: Rat medial meniscal tear model, knee histopathology after intra-articular dosing
Assay type: in vivo, Male Lewis rats
Details: IA 3 μg (each) Q4D days 4, 8, 12, 16, 20, 24; vs Q4D vehicle controls
Description: This model is performed by transection of the medial collateral ligament just below its attachment to the meniscus so that when the joint space opens, the meniscus is reflected toward the femur. The meniscus is cut at its narrowest point (away from the ossicles) taking care not to damage the tibial surface and making sure that the resulting transection produces separate, freely movable anterior and posterior meniscus halves.
Experimental Design: Animals were anesthetized with Isoflurane and the right knee area was prepared for surgery. A skin incision was made over the medial aspect of the knee and the medial collateral ligament was exposed by blunt dissection, and then transected. The medial meniscus was cut through the full thickness to simulate a complete tear. Skin and subcutis were closed with 4-0 Vicryl suture. Dosing by the intra-articular (IA) route began four days after surgery and continued as indicated below until day 24. Treatment groups were as follows: […]
All three sections of each knee were analyzed microscopically. In scoring the three sections, the worst-case scenario for the two halves on each slide was determined for general cartilage degeneration, proteoglycan loss, collagen damage, and osteophyte formation. […] When zones are scored individually, scores are assigned based on % area of the zone affected. […]

COc1ccc([C@@H]2Sc3ccccc3N(CCN(C)C)C(=O)[C@@H]2OC(C)=O)cc1 [Diltiazem, 5-[2-(dimethylamino)ethyl]-2-(4-methoxyphenyl)-4-oxo-2,3,4,5-tetrahydro-1,5-benzothiazepin-3-yl acetate]
decrease in the total joint score: 6%
